According to PMC4366505, “Triggering HIV polyprotein processing by light using rapid photodegradation of a tight-binding protease inhibitor” (Nature Communications, 2015):
Read-outs that look alike come from different tables or passages of the source.

Assays:
[1] = tested on: HIV-1 replication in MT-4 cells; assay: Anti-HIV-1 activity in MT-4 cells (HIV-1 NL4-3 hRluc, Renilla luciferase); details: Human immunodeficiency virus 1, MT4, 72 h, read-out: EC50, inhibition of HIV-1 replication
Procedure: (§3) Cytotoxicity was determined by incubating two-fold serial dilutions of 1 in triplicate in a 96-well plate
(§4) with 30,000 HEK293T cells/well seeded day ago in Dulbecco’s modified Eagle’s medium with L-
(§5) glutamine supplemented with 10% fetal calf serum (FCS, PAA), 100 U of penicillin/mL, 100 µg of
(§6) streptomycin/mL (Sigma-Aldrich) and with 30,000 MT-4 cells (obtained through the NIH AIDS
(§7) medium with 2 mM L-glutamine (PAA) supplemented with 10% FCS, 10 mM HEPES (Sigma-Aldrich),
(§8) 100 U of penicillin/ml, and 100 µg of streptomycin/mL. After 72 h of incubation at 37 °C, 5 % CO2,
(§9) tetrazolium salt XTT (Sigma-Aldrich) was added to the wells for 4 h and formation of colored
(§10) formazan solution was quantified using Victor X3 plate reader (Perkin Elmer). The percentage of
(§11) cytopathic effect (CPE) was plotted against the log10 1 concentrations and the 50 % cytotoxic
(§12) concentrations (CC50) were calculated using nonlinear regression analysis with GraphPad Prism ver. 6
(§13) 1NL4-3hRluc (HIV expressing human Renilla luciferase12) at multiplicity of infection 0.001 IU/ml for 1 h at […]
(§14) dilutions of 1. After 72 h incubation at 37 °C, 5 % CO2 HIV-1 activity was quantified by measuring
(§15) Renilla luciferase luminescence using the Renilla Luciferase Assay System (Promega) in Victor X3
(§16) plate reader. Percentage of inhibition of luminescence activity was plotted against the log10 1 […]

[2] = target: T1, purified recombinant HIV-1 PR (Human immunodeficiency virus type 1 group M subtype B, UniProt P04585); assay: Reactivation of inhibited HIV-1 PR by photolysis at 405 nm, cuvette set up; format: biochemical; details: 8 nM PR
T1 construct: This 99 amino acid long homodimeric aspartic PR; made in house; host or cells: Escherichia coli BL21(DE3) RIL
Procedure: (§1) To evaluate the efficacy of photodegradation, we analyzed the restoration of HIV-1 PR activity that had been inhibited by compound 1 (Fig. 3a) on irradiation at 405 nm. For irradiation, two lasers with outputs of 130 mW and 170 mW, respectively, were used in parallel. First, we tested a standard cuvette set up, in which 8 nM purified recombinant HIV-1 PR (final concentration of compound 1: 10 or 100 nM; Fig. 3b) in 1 ml cleavage buffer was irradiated. At the lower concentration, irradiation led to a significant restoration of enzyme activity (65% compared with the uninhibited enzyme reaction). […]
(§2) Figure 3 Kinetic analysis of HIV-1 PR reactivation by inhibitor photodegradation. […] The activity of purified recombinant HIV-1 PR was determined in vitro as described in the experimental section in the presence of the indicated inhibitor concentrations. […] The PR activity was then measured using a chromogenic substrate. […] Relative PR activity was determined as in b after 20-fold dilution into cleavage buffer using the same chromogenic substrate (for details, see Experimental section) and plotted against the flow rate of the sample through the capillary. […]
Cuvette set up. […] The enzyme activity (and thus the efficacy of photodegradation) was followed by the decrease in absorbance at 305 nm.

[3] = target: T1, purified recombinant HIV-1 PR; assay: Reactivation of inhibited HIV-1 PR by photolysis at 405 nm, capillary set up; format: biochemical
Procedure: as §1, with “reaction). At the higher concentration of compound 1, however, PR reactivation was limited even after prolonged irradiation (only 35% activity after 5 min of irradiation).” for “reaction).”
as §2

[4] = Cytotoxicity, XTT, HEK293T cells; details: human, HEK293T cells
Procedure: as §3, §4, §5, §6, §7, §8, §9, §10, §11, §12, §13, §14, §15, §16

HEK293T cells = assay: Cytotoxicity, XTT, HEK293T cells; details: 2 μM in 0.5% DMSO; cell line not given
[5] = tested on: HIV-1 Gag polyprotein processing; assay: Inhibition of HIV-1 Gag polyprotein processing in particles from transfected HEK293T cells (immunoblot); format: cell-based; details: Human immunodeficiency virus 1, HEK-293T; particles from HEK293T cells transfected with HIV-1 proviral plasmid; read-out: concentration giving ~50% reduction in Gag cleavage
Procedure: PR-mediated cleavage of the Gag polyprotein yields the mature structural proteins and two small spacer peptides (Fig. 4a), and different rates of cleavage at individual sites result in the generation of characteristic processing intermediates. First, we assessed the inhibitory potency of compound 1 on HIV-1 Gag polyprotein processing in virus producing cells. For this, particles were purified from the supernatant of HEK293T cells transfected with an HIV-1 proviral plasmid and incubated in the presence of various concentrations of compound 1.
Figure 4 Inhibition of HIV-1 Gag processing by compound 1. (a) Schematic representation of the 55 kDa HIV-1 Gag polyprotein and its cleavage products. (b) Inhibition of HIV-1 Gag processing by compound 1. HIV-1 particles were produced in HEK293T cells in the presence of the indicated inhibitor concentrations. […]
Samples were separated by SDS–PAGE (17.5%; acrylamide:bisacrylamide 200:1), and proteins were transferred to a nitrocellulose membrane by semi-dry blotting. HIV-1 Gag-derived proteins were detected using rabbit polyclonal antiserum raised against HIV-1 CA, followed by fluorescently labelled goat-anti rabbit secondary antibody (LiCor). Quantification of anti-CA reactive bands was performed using an infrared imaging system (LiCor Odyssey) and Image Studio Lite software. Data were analyzed with GraphPad prism.

[6] = Cytotoxicity, XTT, MT-4 cells; details: human
Procedure: as §3, §4, §5, §6, §7, §8, §9, §10, §11, §12, §13, §14, §15, §16

[7] = Solubility in culture conditions; format: physicochemical; details: 2 μM in 0.5% DMSO
[8] = target: T1, purified recombinant HIV-1 PR; assay: Inhibition of HIV-1 PR, spectrophotometric assay with chromogenic substrate (Morrison equation); format: biochemical
Procedure: Ki values were determined by spectrophotometric assay using purified recombinant HIV-1 PR and the chromogenic substrate KARVNleNphEaNle-NH2. Data were analyzed using the Morrison equation[35].

[9] = tested on: HIV-1 PR inside immature HIV-1 particles; assay: Photoinduced Gag processing in immature HIV-1 particles produced with inhibitor (capillary irradiation, quantitative immunoblot); format: cell-based
Procedure: Having established conditions for the inhibition of HIV-1 polyprotein processing by compound 1, we proceeded to prepare immature particles for in situ activation of PR. For this, virus particles were produced in transfected HEK293T cells grown in the presence of 2 μM inhibitor. The experimental set up is schematically illustrated in Fig. 5a. Particles collected from inhibitor-treated cells were either subjected to inhibitor wash-out by two subsequent ultracentrifugation steps (Fig. 5b), or only filtered to remove cell debris (Fig. 5c). In both cases, samples were then either irradiated (405 nm) in a glass capillary (Fig. 5b,c, bottom panels) or passed through the capillary in the absence of irradiation (Fig. 5b,c, top panels).
Figure 5 Photoinduced Gag processing in the context of the assembled virion. (a) Schematic illustration of the irradiation experiment to trigger HIV-1 maturation using photoinactivation of compound 1. HEK293T cells were transfected with a proviral HIV-1 plasmid and particles were produced in the presence of 2 μM compound 1. At 44 h post transfection, tissue culture supernatant was harvested and either subjected to ultracentrifugation (b,d) or used directly (c,e). In both cases, samples were then pumped through the capillary set up shown in Supplementary Fig. 4 either with or without ultraviolet irradiation. Subsequently, samples were incubated for various lengths of time. (b,c) Immunoblot analysis of Gag processing products. Samples were separated by SDS–PAGE, and products of Gag processing were detected by quantitative immunoblot (LiCor) using antiserum raised against recombinant HIV-1 CA. The figures show samples incubated for the indicated times without prior irradiation or following irradiation, respectively. Positions of Gag-derived proteins are indicated. (d,e) Quantitative analysis of the experiments shown in b or c, respectively. Anti-CA reactive bands from the immunoblots shown and from corresponding blots from irradiated mature control virus produced in the absence of inhibitor (not shown here) were quantified using Image Studio Light. The graphs show the proportion of mature CA relative to the sum of all anti-CA reactive bands in the respective lane. Filled triangles, irradiated control virus; open circles, inhibitor-treated virus, not irradiated; filled circles, inhibitor-treated virus, irradiated. Curves through data from inhibitor-treated samples represent fits to a single exponential equation. The results are representative of several independent experiments with a slight variation in the half-time of Gag polyprotein processing between 20 and 30 min. CA, capsid; MA, matrix.
HEK293T cells were seeded in six-well plates in high-glucose, phenol red-free DMEM supplemented with penicillin/streptomycin and 10% foetal calf serum. On the following day, cells were transfected with plasmid pCHIV[37] using polyethyleneimine according to standard procedures. A final concentration of 2 μM compound 1 or DMSO (vehicle) was added to the tissue culture medium at the time of transfection. At 44 h post transfection, tissue culture supernatants were harvested, adjusted to pH 6.0 using PR buffer (50 mM MES, pH 6.0, 150 mM NaCl, 2 mM DTT, 1 mM EDTA). Alternatively, supernatants were harvested, filtered, inhibitor was removed by two successive ultracentrifugation steps through a 20% sucrose cushion and the particle pellet was resuspended in PR buffer. […]

SMILES	EC50 [1]	remaining activity at 0.01 µM ([2]; 10 nM compound 1, 405 nm irradiation, read-out: restoration of enzyme activity compared with the uninhibited enzyme reaction)	PR activity after irradiation ([2]; 100 nM compound 1, after 5 min of irradiation at 405 nm)	compound degraded by irradiation (estimate) ([3]; estimated from 75% restored PR activity)	original PR activity recovered ([3]; flow rate 15 μl min^−1, inhibitor concentration 100 nM, 405 nm)	CC50 at 72 h [4]	cytotoxicity at working concentration (HEK293T cells)	IC50 [5]	CC50 at 72 h [6]	solubility [7]	Ki [8]	difference in Ki values for RTV and compound 1 ([8]; RTV more potent)	loss of potency on irradiation ([8]; irradiation with a 405 nm laser, inhibitor versus photolysis product)	Gag processing after irradiation ([9]; culture medium without inhibitor removal, irradiated at 405 nm)	Gag processing without irradiation ([9]; culture medium without inhibitor removal, no irradiation, prolonged incubation)	mature CA (proportion of all anti-CA reactive bands) ([9]; inhibitor wash-out by ultracentrifugation, then irradiated at 405 nm, within 15 min, particles produced with 2 μM)	unprocessed or partially processed Gag products remaining ([9]; inhibitor wash-out, then irradiated, at 6 h of incubation)	half-time of Gag processing after irradiation ([9]; particles produced with 2 μM inhibitor, irradiated at 405 nm in capillary)	Ki ([8]; purified recombinant HIV-1 PR, chromogenic substrate KARVNleNphEaNle-NH2, read-out: Ki)
CCN(CC)c1ccc2c(COC(=O)N[C@H](C(=O)N[C@@H](Cc3ccccc3)C[C@H](O)[C@H](Cc3ccccc3)NC(=O)OCc3cncs3)C(C)C)cc(=O)oc2c1 [compound 1]	8.1 nM	65%	35%	up to 98%	up to 75%	> 50000 nM	noncytotoxic	~500 nM	7300 nM	soluble	0.17 ± 0.02 nM	10 fold	4 orders of magnitude	virtually complete Gag processing	no induction of proteolysis	~ 30%	~ 50%	~ 20 min	–
CC(C)[C@H](N)C(=O)N[C@@H](Cc1ccccc1)C[C@H](O)[C@H](Cc1ccccc1)NC(=O)OCc1cncs1 [compound 2]	–	–	–	–	–	–	–	–	–	–	–	–	–	–	–	–	–	–	3200 ± 300 nM
